Measured values published in ChEMBL document CHEMBL4602719, “Discovery of Potent, Selective, and Orally Bioavailable Inhibitors of USP7 with In Vivo Antitumor Activity” (J Med Chem, 2020).

What was measured:
[1] = target: Ubiquitin carboxyl-terminal hydrolase 35 (Homo sapiens, UniProt Q9P2H5); test: Inhibition of USP35 (unknown origin)
[2] = target: Ubiquitin carboxyl-terminal hydrolase 8 (Homo sapiens, UniProt P40818); test: Inhibition of human USP8 expressed in Escherichia coli assessed as cleavage of Ubiquitin-Rhodamine110-glycine to Ubiquitin and Rhodamine110-glycine using Ubiquitin-Rhodamine110-glycine as substrate by fluorescence based analysis
[3] = target: Ubiquitin carboxyl-terminal hydrolase 19 (Homo sapiens, UniProt O94966); test: Inhibition of human GST-tagged USP19 (1 to 1290 residues) expressed in Escherichia coli assessed as cleavage of Ubiquitin-Rhodamine110-glycine to Ubiquitin and Rhodamine110-glycine using Ubiquitin-Rhodamine110-glycine as substrate by fluorescence based analysis
[4] = target: Ubiquitin carboxyl-terminal hydrolase isozyme L1 (Homo sapiens, UniProt P09936); test: Inhibition of human 6His-tagged UCHL1 expressed in Escherichia coli assessed as cleavage of Ubiquitin-Rhodamine110-glycine to Ubiquitin and Rhodamine110-glycine using Ubiquitin-Rhodamine110-glycine as substrate by fluorescence based analysis
[5] = target: OTU domain-containing protein 3 (Homo sapiens, UniProt Q5T2D3); test: Inhibition of human GST-tagged OTUD3 expressed in Escherichia coli assessed as cleavage of Ubiquitin-Rhodamine110-glycine to Ubiquitin and Rhodamine110-glycine using Ubiquitin-Rhodamine110-glycine as substrate by fluorescence based analysis
[6] = target: Ubiquitin carboxyl-terminal hydrolase CYLD (Homo sapiens, UniProt Q9NQC7); test: Inhibition of human 6His-tagged CYLD expressed in baculovirus infected Sf21 insect cells assessed as cleavage of Ubiquitin-Rhodamine110-glycine to Ubiquitin and Rhodamine110-glycine using Ubiquitin-Rhodamine110-glycine as substrate by fluorescence based analysis
[7] = target: Ubiquitin carboxyl-terminal hydrolase 16 (Homo sapiens, UniProt Q9Y5T5); test: Inhibition of USP16 (unknown origin)
[8] = target: Ubiquitin carboxyl-terminal hydrolase 20 (Homo sapiens, UniProt Q9Y2K6); test: Inhibition of human GST-tagged USP20 expressed in Sf21 insect cells assessed as cleavage of Ubiquitin-Rhodamine110-glycine to Ubiquitin and Rhodamine110-glycine using Ubiquitin-Rhodamine110-glycine as substrate by fluorescence based analysis
[9] = target: T1, Ubiquitin carboxyl-terminal hydrolase 7 (Homo sapiens, UniProt Q93009); test: Inhibition of USP7 in human RKO cells transfected with p53 luciferase reporter vector assessed as increase in p53-dependent luciferase activity measured after 18 hrs by BrightGlo luciferase assay; type: cell-based
[10] = target: Ubiquitin carboxyl-terminal hydrolase 14 (Homo sapiens, UniProt P54578); test: Inhibition of human His6-tagged USP14 expressed in Escherichia coli using Ubiquitin-Rhodamine110-glycine as substrate by fluorescence based analysis
[11] = target: Ubiquitin thioesterase OTU1 (Homo sapiens, UniProt Q5VVQ6); test: Inhibition of human GST-tagged OTU1 expressed in Escherichia coli assessed as cleavage of Ubiquitin-Rhodamine110-glycine to Ubiquitin and Rhodamine110-glycine using Ubiquitin-Rhodamine110-glycine as substrate by fluorescence based analysis
[12] = target: Ubiquitin carboxyl-terminal hydrolase 9X (Homo sapiens, UniProt Q93008); test: Inhibition of human GST-tagged USP9X CD (1554 to 1995 residues) expressed in Escherichia coli assessed as cleavage of Ubiquitin-Rhodamine110-glycine to Ubiquitin and Rhodamine110-glycine using Ubiquitin-Rhodamine110-glycine as substrate by fluorescence based analysis
[13] = target: Ubiquitin carboxyl-terminal hydrolase 4 (Homo sapiens, UniProt Q13107); test: Inhibition of human 6His-tagged USP4 expressed in Escherichia coli assessed as cleavage of Ubiquitin-Rhodamine110-glycine to Ubiquitin and Rhodamine110-glycine using Ubiquitin-Rhodamine110-glycine as substrate by fluorescence based analysis
Josephin-1 = Josephin-1 (Homo sapiens, UniProt Q15040); test: Inhibition of human His6-tagged JOSD1 expressed in Escherichia coli assessed as cleavage of Ubiquitin-Rhodamine110-glycine to Ubiquitin and Rhodamine110-glycine using Ubiquitin-Rhodamine110-glycine as substrate by fluorescence based analysis
[14] = target: T1, Ubiquitin carboxyl-terminal hydrolase 7; test: Inhibition of recombinant full length USP7 (unknown origin) using ubiquintin-rhodamine as substrate preincubated for 30 mins followed by substrate addition measured after 1 hr by fluorescence-based Envision plate reader assay
[15] = Clearance in Sprague-Dawley rat at 0.5 mg/kg, iv; type: ADME, organism-based; conditions: in vivo
[16] = target: Ubiquitin carboxyl-terminal hydrolase 25 (Homo sapiens, UniProt Q9UHP3); test: Inhibition of human GST-tagged USP25 expressed in Escherichia coli assessed as cleavage of Ubiquitin-Rhodamine110-glycine to Ubiquitin and Rhodamine110-glycine using Ubiquitin-Rhodamine110-glycine as substrate by fluorescence based analysis
[17] = Cytotoxicity against human RKO cells assessed as reduction in cellular ATP level measured after 5 days by CellTiter-Glo assay; type: cell-based
Deubiquitinase OTUD6B = Deubiquitinase OTUD6B (Homo sapiens, UniProt Q8N6M0); test: Inhibition of human GST-tagged OTUD6B expressed in Escherichia coli assessed as cleavage of Ubiquitin-Rhodamine110-glycine to Ubiquitin and Rhodamine110-glycine using Ubiquitin-Rhodamine110-glycine as substrate by fluorescence based analysis
[18] = target: Voltage-gated inwardly rectifying potassium channel KCNH2 (Homo sapiens, UniProt Q12809); test: Inhibition of human ERG
[19] = target: OTU domain-containing protein 7B (Homo sapiens, UniProt Q6GQQ9); test: Inhibition of cezanne (unknown origin)
Ataxin-3 = Ataxin-3 (Homo sapiens, UniProt P54252); test: Inhibition of human GST-tagged Ataxin-3 expressed in Escherichia coli assessed as cleavage of Ubiquitin-Rhodamine110-glycine to Ubiquitin and Rhodamine110-glycine using Ubiquitin-Rhodamine110-glycine as substrate by fluorescence based analysis
[20] = target: Ubiquitin carboxyl-terminal hydrolase 36 (Homo sapiens, UniProt Q9P275); test: Inhibition of human GST-tagged USP36 CD (81 to 461 residues) expressed in Escherichia coli assessed as cleavage of Ubiquitin-Rhodamine110-glycine to Ubiquitin and Rhodamine110-glycine using Ubiquitin-Rhodamine110-glycine as substrate by fluorescence based analysis
[21] = target: Ubiquitin carboxyl-terminal hydrolase 28 (Homo sapiens, UniProt Q96RU2); test: Inhibition of human GST-tagged USP28 expressed in Escherichia coli assessed as cleavage of Ubiquitin-Rhodamine110-glycine to Ubiquitin and Rhodamine110-glycine using Ubiquitin-Rhodamine110-glycine as substrate by fluorescence based analysis
[22] = target: Ubiquitin carboxyl-terminal hydrolase isozyme L5 (Homo sapiens, UniProt Q9Y5K5); test: Inhibition of human GST-tagged UCHL5 expressed in Escherichia coli assessed as cleavage of Ubiquitin-Rhodamine110-glycine to Ubiquitin and Rhodamine110-glycine using Ubiquitin-Rhodamine110-glycine as substrate by fluorescence based analysis
AMSH-like protease = AMSH-like protease (Homo sapiens, UniProt Q96FJ0); test: Inhibition of human GST-tagged AMSH-LP CD (264 to 436 residues) expressed in Escherichia coli assessed as cleavage of Ubiquitin-Rhodamine110-glycine to Ubiquitin and Rhodamine110-glycine using Ubiquitin-Rhodamine110-glycine as substrate by fluorescence based analysis
AMSH-like protease, sequence (Q96FJ0 whole entry, the tested form may be a part): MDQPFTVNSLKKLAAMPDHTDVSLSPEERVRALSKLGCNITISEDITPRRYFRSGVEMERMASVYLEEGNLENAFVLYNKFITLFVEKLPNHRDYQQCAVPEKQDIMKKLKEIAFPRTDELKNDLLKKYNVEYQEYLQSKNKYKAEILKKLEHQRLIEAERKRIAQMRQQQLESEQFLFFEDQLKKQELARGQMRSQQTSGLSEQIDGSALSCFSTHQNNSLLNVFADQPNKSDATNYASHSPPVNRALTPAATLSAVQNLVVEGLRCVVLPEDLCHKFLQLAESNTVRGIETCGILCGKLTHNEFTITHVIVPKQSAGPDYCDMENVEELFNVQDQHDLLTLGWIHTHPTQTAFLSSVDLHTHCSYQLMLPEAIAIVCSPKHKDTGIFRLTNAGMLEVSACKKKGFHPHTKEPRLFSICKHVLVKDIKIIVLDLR

T1 sequence (Q93009 whole entry): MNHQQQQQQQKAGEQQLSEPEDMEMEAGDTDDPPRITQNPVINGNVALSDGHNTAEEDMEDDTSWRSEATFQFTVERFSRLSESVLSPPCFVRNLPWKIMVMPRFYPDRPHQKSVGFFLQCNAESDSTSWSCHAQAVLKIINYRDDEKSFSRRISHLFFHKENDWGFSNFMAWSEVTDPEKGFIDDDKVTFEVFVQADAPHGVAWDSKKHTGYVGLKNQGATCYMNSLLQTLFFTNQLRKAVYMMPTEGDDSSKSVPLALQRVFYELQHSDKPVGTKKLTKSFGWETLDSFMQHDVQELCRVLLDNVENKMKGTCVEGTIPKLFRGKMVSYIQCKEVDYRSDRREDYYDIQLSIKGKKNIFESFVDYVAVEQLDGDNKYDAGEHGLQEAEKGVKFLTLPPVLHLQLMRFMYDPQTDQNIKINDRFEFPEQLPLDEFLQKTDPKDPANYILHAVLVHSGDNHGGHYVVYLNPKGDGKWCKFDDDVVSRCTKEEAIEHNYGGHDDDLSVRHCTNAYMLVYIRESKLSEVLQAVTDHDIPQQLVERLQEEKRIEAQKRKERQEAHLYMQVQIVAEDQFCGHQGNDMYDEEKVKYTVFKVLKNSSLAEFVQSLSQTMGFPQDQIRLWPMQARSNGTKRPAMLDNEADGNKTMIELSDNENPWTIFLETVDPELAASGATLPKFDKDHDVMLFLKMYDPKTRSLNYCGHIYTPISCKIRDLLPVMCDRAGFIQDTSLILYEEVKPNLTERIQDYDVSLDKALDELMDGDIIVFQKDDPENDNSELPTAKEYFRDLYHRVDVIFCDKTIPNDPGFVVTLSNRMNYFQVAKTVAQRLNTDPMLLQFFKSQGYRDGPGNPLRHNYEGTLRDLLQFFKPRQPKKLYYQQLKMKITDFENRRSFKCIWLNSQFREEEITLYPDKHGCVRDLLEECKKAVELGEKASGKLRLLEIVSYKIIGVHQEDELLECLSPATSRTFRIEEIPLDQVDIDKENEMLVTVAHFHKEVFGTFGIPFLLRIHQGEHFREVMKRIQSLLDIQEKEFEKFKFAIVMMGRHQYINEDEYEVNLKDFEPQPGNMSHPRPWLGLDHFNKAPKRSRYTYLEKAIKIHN
Ubiquitin carboxyl-terminal hydrolase isozyme L1, sequence (P09936 whole entry, the tested form may be a part): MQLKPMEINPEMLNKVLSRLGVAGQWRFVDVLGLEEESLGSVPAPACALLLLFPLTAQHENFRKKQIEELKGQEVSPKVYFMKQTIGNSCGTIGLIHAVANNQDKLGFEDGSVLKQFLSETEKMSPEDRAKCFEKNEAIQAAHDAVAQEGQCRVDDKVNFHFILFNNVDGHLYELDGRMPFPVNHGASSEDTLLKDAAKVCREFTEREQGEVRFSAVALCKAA
Ubiquitin carboxyl-terminal hydrolase 8, sequence (P40818 whole entry, the tested form may be a part): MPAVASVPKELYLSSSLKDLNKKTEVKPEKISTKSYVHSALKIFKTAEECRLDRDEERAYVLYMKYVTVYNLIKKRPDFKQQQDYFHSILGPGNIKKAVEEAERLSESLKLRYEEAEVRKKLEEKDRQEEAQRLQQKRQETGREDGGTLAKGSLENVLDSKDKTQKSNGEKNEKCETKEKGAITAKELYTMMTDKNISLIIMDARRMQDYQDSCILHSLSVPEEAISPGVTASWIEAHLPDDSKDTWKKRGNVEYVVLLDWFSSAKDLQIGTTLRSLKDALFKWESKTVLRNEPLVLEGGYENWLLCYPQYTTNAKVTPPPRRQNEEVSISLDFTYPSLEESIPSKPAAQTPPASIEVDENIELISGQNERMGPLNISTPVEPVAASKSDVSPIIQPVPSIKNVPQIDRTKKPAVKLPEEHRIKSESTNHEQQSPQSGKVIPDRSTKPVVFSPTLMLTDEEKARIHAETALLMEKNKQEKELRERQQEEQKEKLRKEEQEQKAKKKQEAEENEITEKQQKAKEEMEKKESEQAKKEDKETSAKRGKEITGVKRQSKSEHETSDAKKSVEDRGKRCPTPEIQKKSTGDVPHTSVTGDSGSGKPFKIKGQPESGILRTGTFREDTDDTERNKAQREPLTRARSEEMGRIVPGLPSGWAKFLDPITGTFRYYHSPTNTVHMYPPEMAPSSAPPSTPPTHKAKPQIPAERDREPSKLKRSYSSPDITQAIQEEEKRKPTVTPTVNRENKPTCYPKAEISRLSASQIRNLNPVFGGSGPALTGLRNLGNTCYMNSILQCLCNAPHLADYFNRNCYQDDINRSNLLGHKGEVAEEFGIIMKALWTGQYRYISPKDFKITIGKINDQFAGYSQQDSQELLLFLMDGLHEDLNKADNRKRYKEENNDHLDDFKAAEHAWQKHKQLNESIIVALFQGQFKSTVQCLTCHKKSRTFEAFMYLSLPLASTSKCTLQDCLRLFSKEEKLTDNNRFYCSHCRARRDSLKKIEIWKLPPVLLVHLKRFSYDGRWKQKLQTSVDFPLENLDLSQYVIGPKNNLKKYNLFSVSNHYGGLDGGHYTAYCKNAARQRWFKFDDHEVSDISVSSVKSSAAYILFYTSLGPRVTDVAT
OTU domain-containing protein 7B, sequence (Q6GQQ9 whole entry, the tested form may be a part): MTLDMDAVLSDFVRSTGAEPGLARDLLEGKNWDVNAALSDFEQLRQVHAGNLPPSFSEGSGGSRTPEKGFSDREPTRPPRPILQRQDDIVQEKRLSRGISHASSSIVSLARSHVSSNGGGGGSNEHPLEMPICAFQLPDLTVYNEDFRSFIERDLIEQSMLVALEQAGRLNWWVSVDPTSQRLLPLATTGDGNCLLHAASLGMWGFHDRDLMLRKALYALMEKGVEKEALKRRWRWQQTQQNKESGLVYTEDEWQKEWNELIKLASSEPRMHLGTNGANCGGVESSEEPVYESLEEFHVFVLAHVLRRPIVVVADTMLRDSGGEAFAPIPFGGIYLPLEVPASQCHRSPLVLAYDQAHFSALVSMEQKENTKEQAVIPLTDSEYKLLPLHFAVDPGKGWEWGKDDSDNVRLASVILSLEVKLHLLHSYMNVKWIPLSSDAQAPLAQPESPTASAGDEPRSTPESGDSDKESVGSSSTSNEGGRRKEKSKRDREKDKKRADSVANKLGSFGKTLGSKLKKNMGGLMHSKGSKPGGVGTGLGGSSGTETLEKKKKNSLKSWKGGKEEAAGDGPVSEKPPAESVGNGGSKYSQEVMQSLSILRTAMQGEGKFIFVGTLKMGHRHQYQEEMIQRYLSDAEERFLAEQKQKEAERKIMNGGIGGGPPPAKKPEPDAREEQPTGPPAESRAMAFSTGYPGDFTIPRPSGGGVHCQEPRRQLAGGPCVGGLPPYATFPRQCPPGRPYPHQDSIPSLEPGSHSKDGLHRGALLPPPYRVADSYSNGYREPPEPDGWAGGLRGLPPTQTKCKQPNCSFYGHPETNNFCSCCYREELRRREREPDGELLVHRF
Ubiquitin carboxyl-terminal hydrolase 14, sequence (P54578 whole entry): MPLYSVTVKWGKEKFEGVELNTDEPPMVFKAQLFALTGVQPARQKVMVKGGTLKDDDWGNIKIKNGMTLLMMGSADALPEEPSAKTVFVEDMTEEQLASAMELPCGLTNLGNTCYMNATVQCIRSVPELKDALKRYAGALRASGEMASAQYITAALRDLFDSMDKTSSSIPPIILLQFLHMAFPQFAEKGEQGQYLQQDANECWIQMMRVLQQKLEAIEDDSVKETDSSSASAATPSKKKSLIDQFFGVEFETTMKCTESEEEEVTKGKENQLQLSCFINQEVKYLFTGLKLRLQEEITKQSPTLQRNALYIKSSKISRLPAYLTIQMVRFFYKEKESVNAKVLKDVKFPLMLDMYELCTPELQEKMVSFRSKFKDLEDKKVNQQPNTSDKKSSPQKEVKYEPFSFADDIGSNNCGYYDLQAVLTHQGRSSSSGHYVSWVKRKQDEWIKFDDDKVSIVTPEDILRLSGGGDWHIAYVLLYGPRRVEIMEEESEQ
Ataxin-3, sequence (P54252 whole entry, the tested form may be a part): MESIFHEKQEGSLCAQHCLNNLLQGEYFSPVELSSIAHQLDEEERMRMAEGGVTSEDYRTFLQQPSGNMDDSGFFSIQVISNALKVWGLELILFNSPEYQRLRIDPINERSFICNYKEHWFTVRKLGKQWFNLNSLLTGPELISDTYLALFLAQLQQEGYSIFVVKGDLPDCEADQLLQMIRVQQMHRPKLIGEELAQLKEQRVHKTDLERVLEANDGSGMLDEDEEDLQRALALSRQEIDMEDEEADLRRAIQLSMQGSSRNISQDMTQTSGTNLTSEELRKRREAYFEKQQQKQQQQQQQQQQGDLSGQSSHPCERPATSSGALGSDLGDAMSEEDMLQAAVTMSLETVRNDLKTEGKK
OTU domain-containing protein 3, sequence (Q5T2D3 whole entry, the tested form may be a part): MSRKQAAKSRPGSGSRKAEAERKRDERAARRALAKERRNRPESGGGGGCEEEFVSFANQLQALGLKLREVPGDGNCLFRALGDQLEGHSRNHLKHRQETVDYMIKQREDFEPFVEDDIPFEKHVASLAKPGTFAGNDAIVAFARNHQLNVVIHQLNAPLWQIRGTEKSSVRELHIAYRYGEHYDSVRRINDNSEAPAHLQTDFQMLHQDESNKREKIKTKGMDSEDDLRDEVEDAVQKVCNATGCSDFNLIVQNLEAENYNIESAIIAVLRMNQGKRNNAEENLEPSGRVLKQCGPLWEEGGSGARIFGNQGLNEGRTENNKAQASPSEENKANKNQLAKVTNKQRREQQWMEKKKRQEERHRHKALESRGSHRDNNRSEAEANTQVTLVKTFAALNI

IC50 [1]: > 10 µM
IC50 [2]: > 10 µM
IC50 [3]: > 10 µM
IC50 [4]: > 10 µM
IC50 [5]: > 10 µM
IC50 [6]: > 10 µM
IC50 [7]: > 10 µM
IC50 [8]: > 10 µM
EC50 [9]: 0.065 µM
IC50 [10]: > 10 µM
IC50 [11]: > 10 µM
IC50 [12]: > 10 µM
IC50 [13]: > 10 µM
IC50 (Josephin-1): > 10 µM
IC50 [14]: 0.00018 µM
clearance [15]: 1.83 mL/min/kg
IC50 [16]: > 10 µM
IC50 (Deubiquitinase OTUD6B): > 10 µM
IC50 [19]: > 10 µM
IC50 [20]: > 10 µM
IC50 [21]: > 10 µM
IC50 [22]: > 10 µM
IC50 (AMSH-like protease): > 10 µM
Compound: Cc1cc(Cl)cc(-c2ccnc3cc(CN4C(=O)C5C(C4=O)C5(C)C)sc23)c1O[C@@H]1CCNC[C@@H]1C (stereo partly specified)
CC50 at 120 h [17]: 3.4 µM
IC50 [18]: 0.4 µM
IC50 (Ataxin-3): > 10 µM
